Experiment: Administration of N-Benzyl Piperazine (appetite suppressant / anti-depressant effect)
Type: in vivo
Conditions: administration of the compound; no test details given
Source text: This Patent description is of the use of N-Benzyl Piperazine and Analogues as Quality of Life Enhancers. Administration of N-Benzyl Piperazine has shown to be effective as an appetite suppressant and as a mild anti-depressant. Yeah though it be known that N-Benzyl Piperazine is a CNS stimulant and that stimulants usually are appetite suppressants, it was unknown and unobvious that the binding affinities for the serotonin receptor would be in “perfect” harmony with the norepinephrine receptor to eliminate the side effects of nervousness and the like. It was also unobvious that the increased levels of serotonin and norepinephrine would facilitate individuals in their daily lives to accomplish goals. That is why it is referred to as a Quality of Life Enhancer. Quality of Life Enhancer is defined as a weight loss supplement, appetite suppressant, anti-depressant, cognition enhancer or diet supplement.
Administration of the compounds is usually in the form of their pharmaceutically acceptable acid addition salts. Doses are within the range if 10 mg to 300 mg per day, but usually are in pills of 75 mg two times a day. Once desired effect is attained 75 mg per day is sufficient.

c1ccc(CN2CCNCC2)cc1 [N-Benzyl Piperazine, 1-benzylpiperazine]
effectiveness as a mild anti-depressant: effective
